{"source": "the PolyMetriX glass transition set", "note": "± gives the standard deviation of the reports."}
{"units": {"glass transition temperature": "°C"}}
{"smiles": "*c1ccc(Oc2ccc(-c3ccc(Oc4ccc(N5C(=O)c6ccc(Oc7cc8ccccc8cc7Oc7ccc8c(c7)C(=O)N(*)C8=O)cc6C5=O)cc4)cc3)cc2)cc1", "note": "(repeat unit)", "glass transition temperature": 222.50}
{"smiles": "*c1ccc(Oc2ccc(S(=O)(=O)c3ccc(Oc4ccc(-c5c6c(c(*)c7ccccc57)C(=O)N(c5ccccc5-c5ccccc5)C6=O)cc4)cc3)cc2)cc1", "note": "(repeat unit)", "glass transition temperature": 278.00}
{"smiles": "*Oc1ccc(C(c2ccc(OC(*)=O)cc2)(C(F)(F)Cl)C(F)(F)Cl)cc1", "note": "(repeat unit)", "glass transition temperature": 183.50}
{"smiles": "*CC(*)(C)C(=O)OCCCCn1c2ccccc2c2cc(/N=N/c3ccc([N+](=O)[O-])cc3[N+](=O)[O-])ccc21", "note": "(repeat unit)", "glass transition temperature": 132.00}
{"smiles": "*OC(C)C(=O)NC(C)C(*)=O", "note": "(repeat unit)", "glass transition temperature": 57.7}
{"smiles": "*c1ccc(Oc2ccc(Oc3ccc(N4C(=O)c5ccc(Oc6c(C)cc(C(C)(C)c7cc(C)c(Oc8ccc9c(c8)C(=O)N(*)C9=O)c(C)c7)cc6C)cc5C4=O)cc3)c(C(C)(C)C)c2)cc1", "note": "(repeat unit)", "glass transition temperature": 244.00}
{"smiles": "*CC/C=C(/*)Cl", "note": "(repeat unit) [Polychloroprene ]", "glass transition temperature": "-48 ± 18"}
{"smiles": "*c1ccc(Oc2ccc(N3C(=O)c4ccc(S(=O)(=O)c5ccc6c(c5)C(=O)N(*)C6=O)cc4C3=O)cc2)cc1", "note": "(repeat unit)", "glass transition temperature": 283.50}
{"smiles": "*CCOC(=O)c1ccc(C(=O)OCCOc2ccc(C(C)(C)c3ccc(O*)cc3)cc2)cc1", "note": "(repeat unit)", "glass transition temperature": 83.00}
{"smiles": "*CC(*)c1cc(Br)ccc1OCC", "note": "(repeat unit)", "glass transition temperature": 80.00}
{"smiles": "*CC(*)(C)C(=O)OCCCCCCCCCCOc1ccc(C(=O)Oc2ccc(C(=O)/C=C/c3c(C)c4ccccc4n3C)cc2)cc1", "note": "(repeat unit)", "glass transition temperature": 72.00}
{"smiles": "*c1ccc(Oc2ccc(C(=O)c3ccc(Oc4ccc(-c5c6c(c(*)c7ccccc57)C(=O)N(c5ccccc5-c5ccccc5)C6=O)cc4)cc3)cc2)cc1", "note": "(repeat unit)", "glass transition temperature": 245.00}
{"smiles": "*CCCCCNC(=O)CCCCC(=O)N*", "note": "(repeat unit)", "glass transition temperature": 46.50}
{"smiles": "*c1ccc(Cc2ccc(N3C(=O)c4ccc(S(=O)(=O)c5ccc6c(c5)C(=O)N(*)C6=O)cc4C3=O)cc2)cc1", "note": "(repeat unit)", "glass transition temperature": 319.00}
{"smiles": "*c1c(C)cc(C)c(-n2c(=O)c3cc4c(=O)n(*)c(=O)c4cc3c2=O)c1C", "note": "(repeat unit)", "glass transition temperature": 399.8}
{"smiles": "*CCCCCCCCCCCCNC(=O)c1ccc(C(=O)N*)c(Oc2ccccc2)c1", "note": "(repeat unit)", "glass transition temperature": 75.00}
{"smiles": "*Oc1ccc(C(c2ccc(Oc3ccc(C(=O)C(=O)c4ccc(*)cc4)cc3)cc2)(C(F)(F)F)C(F)(F)F)cc1", "note": "(repeat unit)", "glass transition temperature": 162.00}
{"smiles": "*c1ccc(Cc2ccc(N3C(=O)c4ccc([Si](C)(C)O[Si](C)(C)c5ccc6c(c5)C(=O)N(*)C6=O)cc4C3=O)cc2)cc1", "note": "(repeat unit)", "glass transition temperature": 232.00}
{"smiles": "*c1ccc(Nc2nc(Nc3ccc(-c4nc5cc(-c6ccc7[nH]c(*)nc7c6)ccc5[nH]4)cc3)nc(N(c3ccccc3)c3ccccc3)n2)cc1", "note": "(repeat unit)", "glass transition temperature": 329.00}
{"smiles": "*c1ccc(S(=O)(=O)c2ccc(-n3c(=O)c4cc5c(=O)n(*)c(=O)c5cc4c3=O)cc2)cc1", "note": "(repeat unit)", "glass transition temperature": 350.00}
{"smiles": "*=Nc1ccc(Cc2ccc(NC(=*)CC)cc2)cc1", "note": "(repeat unit)", "glass transition temperature": 130.00}
{"smiles": "*c1ccc(Oc2ccc(Oc3ccc(N4C(=O)CC(=O)N(*)C4=S)cc3)cc2)cc1", "note": "(repeat unit)", "glass transition temperature": 157.00}
{"smiles": "*c1ccc(Oc2ccc(S(=O)(=O)c3ccc(Oc4ccc(-c5nc(-c6ccc(-c7nc(*)c(-c8ccccc8)[nH]7)cc6)[nH]c5-c5ccccc5)cc4)cc3)cc2)cc1", "note": "(repeat unit)", "glass transition temperature": 301.00}
{"smiles": "*c1cc(CCCCCC)c(-c2ccc3c4ccc(-c5sc(-c6sc(*)c7nc(CC)c(CC)nc67)cc5CCCCCC)cc4n(CCCCCCCCCCCC)c3c2)s1", "note": "(repeat unit)", "glass transition temperature": 89.00}
{"smiles": "*CC(*)Cc1ccccc1C", "note": "(repeat unit)", "glass transition temperature": 80.00}
{"smiles": "*CC(*)C(=O)c1ccccc1", "note": "(repeat unit) [Poly(phenyl vinyl ketone)]", "glass transition temperature": "60.80 ± 17"}
{"smiles": "*CCCCCCOP(=O)(/N=N/c1ccc(CCOC(=O)c2cc(C(=O)OCCc3ccc(/N=N/P(=O)(O*)OC)cc3)cc(C(C)(C)C)c2)cc1)OC", "note": "(repeat unit)", "glass transition temperature": 47.00}
{"smiles": "*Oc1ccc(NC(=O)c2cc(NC(=O)c3ccc(OC(C)=O)cc3)cc(C(=O)Nc3ccc(Oc4ccc(C(C)(C)c5ccc(*)cc5)cc4)cc3)c2)cc1", "note": "(repeat unit)", "glass transition temperature": 243.00}
{"smiles": "*CC(*)(C)C(=O)OCCCCCCCCCCCOc1ccc2cc(C(=O)Oc3ccccc3)ccc2c1", "note": "(repeat unit)", "glass transition temperature": 10.00}
{"smiles": "*CCOC(=O)c1ccc2cc(C(=O)O*)ccc2c1", "note": "(repeat unit) [Poly(ethylene 2,6-naphthalate)]", "glass transition temperature": "121.42 ± 2.3"}
{"smiles": "*CCCCCOc1ccc(-c2ccc(O*)c3ccccc23)c2ccccc12", "note": "(repeat unit)", "glass transition temperature": 151.00}
{"smiles": "*CC(*)c1ccc(C(C)(C)O)cc1", "note": "(repeat unit)", "glass transition temperature": 170.00}
{"smiles": "*CCCCCCCCCCCCOC(=O)NCc1ccc(CNC(=O)O*)cc1", "note": "(repeat unit)", "glass transition temperature": 45.00}
{"smiles": "*Oc1ccc(Oc2ccc(C(=O)c3ccc(*)cc3)cc2)cc1-c1ccccc1", "note": "(repeat unit)", "glass transition temperature": 157.00}
{"smiles": "*/C=C/C1CC(*)C2C(=O)N(CCCCC)C(=O)C12", "note": "(repeat unit)", "glass transition temperature": 99.00}
{"smiles": "*c1cccc(NC(=O)CCCCCCCCCCC(=O)Nc2cccc(S(*)(=O)=O)c2)c1", "note": "(repeat unit)", "glass transition temperature": 107.00}
{"smiles": "*CCC[Si](C)(C)O[Si](C)(C)CCCN1C(=O)c2ccc(C(=O)c3ccc4c(c3)C(=O)N(*)C4=O)cc2C1=O", "note": "(repeat unit)", "glass transition temperature": 68.00}
{"smiles": "*Cc1ccccc1C[Si](*)(C)C", "note": "(repeat unit)", "glass transition temperature": 75.00}
{"smiles": "*/C=C(/*)c1ccccc1C(F)(F)F", "note": "(repeat unit)", "glass transition temperature": 130.00}
{"smiles": "*c1ccc(Cc2ccc(N3C(=O)c4cc(-c5ccc([Si](C)(C)C)cc5)c(-c5cc6c(cc5-c5ccc([Si](C)(C)C)cc5)C(=O)N(*)C6=O)cc4C3=O)cc2)cc1", "note": "(repeat unit)", "glass transition temperature": 348.00}
{"smiles": "*Oc1ccc(OC(=O)Oc2ccc(C(C)(C)c3ccc(OC(*)=O)cc3)cc2)cc1", "note": "(repeat unit)", "glass transition temperature": 97.00}
{"smiles": "*CC(*)OCCCCCCCC", "note": "(repeat unit) [Poly(octyl vinyl ether)]", "glass transition temperature": "-79.83 ± 0.9"}
{"smiles": "*c1ccc(-c2ccc(-c3ccc(-n4c(=O)c5c(C(F)(F)F)c6c(=O)n(*)c(=O)c6c(C(F)(F)F)c5c4=O)cc3)cc2)cc1", "note": "(repeat unit)", "glass transition temperature": 364.00}
{"smiles": "*Oc1ccc(Nc2ccc(C(=O)c3ccc(C(=O)c4ccc(Nc5ccc(*)cc5)cc4)cc3)cc2)cc1", "note": "(repeat unit)", "glass transition temperature": 215.00}
{"smiles": "*c1ccc(Cc2ccc(N3C(=O)c4ccc(OCCN(CCOc5ccc6c(c5)C(=O)N(*)C6=O)c5ccc(/C=C/c6ccc([N+](=O)[O-])cc6)cc5)cc4C3=O)cc2)cc1", "note": "(repeat unit)", "glass transition temperature": 160.70}
{"smiles": "*CC(F)(F)C(F)(F)C(F)(F)COC(=O)c1cc(OCCCCC)cc(C(=O)O*)c1", "note": "(repeat unit)", "glass transition temperature": -30.00}
{"smiles": "*CCCCCCCCOc1ccc(NC(=O)c2cccc(C(=O)Nc3ccc(O*)cc3)c2)cc1", "note": "(repeat unit)", "glass transition temperature": 128.00}
{"smiles": "*CCCCCCNC(=O)C(OC)C(OC)C(=O)N*", "note": "(repeat unit)", "glass transition temperature": 106.00}
{"smiles": "*Oc1ccc(NC(=O)c2ccc(Oc3ccc(C(C)(C)c4cccc(C(C)(C)c5ccc(Oc6ccc(C(=O)Nc7ccc(*)cc7)cc6)cc5)c4)cc3)cc2)cc1", "note": "(repeat unit)", "glass transition temperature": 155.00}
{"smiles": "*c1ccc(OCCN(CC)c2ccc(-c3ccc(C(=C(C#N)C#N)c4ccc(N(CC)CC)cc4)s3)cc2)c(-c2cc(-c3ccccc3)c3cc(Oc4ccc5nc(*)cc(-c6ccccc6)c5c4)ccc3n2)c1", "note": "(repeat unit)", "glass transition temperature": 215.00}
{"smiles": "*CCSSSS*", "note": "(repeat unit)", "glass transition temperature": -24.00}
{"smiles": "*C(=O)c1ccc2c(c1)C(=O)N(c1ccc(C(c3ccccc3)c3ccc(N4C(=O)c5ccc(*)cc5C4=O)cc3)cc1)C2=O", "note": "(repeat unit)", "glass transition temperature": 282.00}
{"smiles": "*C(=O)Nc1cccc(NC(=O)c2ccc3[nH]c(-c4ccc(-c5nc6cc(*)ccc6[nH]5)cc4)nc3c2)c1", "note": "(repeat unit)", "glass transition temperature": 294.00}
{"smiles": "*c1ccc(Oc2ccc(C3(c4ccc(Oc5ccc(N6C(=O)CC(=O)N(*)C6=S)cc5)cc4)c4ccccc4-c4ccccc43)cc2)cc1", "note": "(repeat unit)", "glass transition temperature": 175.00}
{"smiles": "*/C=C/C1CC(*)C2C(=O)N(CCCC)C(=O)C12", "note": "(repeat unit)", "glass transition temperature": 131.00}
{"smiles": "*Oc1ccc(OC(=O)c2ccc(-c3ccc(C(*)=O)cc3)cc2-c2ccccc2)cc1", "note": "(repeat unit)", "glass transition temperature": 140.00}
{"smiles": "*C(=O)Nc1cc(C(F)(F)F)ccc1Oc1cccc2c(Oc3ccc(C(F)(F)F)cc3NC(=O)c3ccc4c(c3)C(=O)N(c3ccc(Oc5ccc(N6C(=O)c7ccc(*)cc7C6=O)cc5-c5ccccc5)c(-c5ccccc5)c3)C4=O)cccc12", "note": "(repeat unit)", "glass transition temperature": 376.00}
{"smiles": "*OC(COC(=O)c1ccc2cc(C(*)=O)ccc2c1)COc1ccc(/N=N/c2ccc(C#N)cc2)cc1", "note": "(repeat unit)", "glass transition temperature": 138.00}
{"smiles": "*Sc1ccc(Nc2ccc(*)cc2)cc1", "note": "(repeat unit)", "glass transition temperature": 145.00}
{"smiles": "*c1ccc(OCCCCCCCCCCCOC(=O)CCCCCCCCC(=O)OCCCCCCCCCCCOc2ccc(-c3nnc(*)s3)cc2)cc1", "note": "(repeat unit)", "glass transition temperature": 52.00}
{"smiles": "*c1cc(CCCCCCCCCC)c(*)s1", "note": "(repeat unit)", "glass transition temperature": "-30.00 ± 4.2"}
{"smiles": "*CCNC(=O)c1ccc([Si](C)(C)c2ccc(C(=O)NCCN(*)c3ccc(/C=C/c4ccc([N+](=O)[O-])cc4)cc3)cc2)cc1", "note": "(repeat unit)", "glass transition temperature": 150.00}
{"smiles": "*c1ccc2c(c1)C(=O)N(c1cccc(C(c3cccc(N4C(=O)c5ccc(C(*)(C(F)(F)F)C(F)(F)F)cc5C4=O)c3)(C(F)(F)F)C(F)(F)F)c1)C2=O", "note": "(repeat unit)", "glass transition temperature": 263.00}
